Test results as given in patent EP3409761B1, “CULTURE MEDIUM COMPOSITION, AND METHOD FOR CULTURING CELL OR TISSUE USING SAID COMPOSITION” (Nissan Chemical Corporation, priority 2012, dated 2014).

Experiments:
Format in all cases: cell-based
[1] = tested on: human lung cancer cell line A549; experiment: A549 cell proliferation test using Trametinib and MK-2206; conditions: day 4 of the static culture
Experimental: (§1) This aqueous solution was sterilized at 121°C for 20 min in an autoclave. […] Each plate was cultured by being stood still in a CO2 incubator (37°C, 5% CO2). […] The anticancer drugs used were Trametinib (manufactured by Santa Cruz, MEK inhibitor) and MK-2206 (manufactured by Santa Cruz, Akt inhibitor). […]

[2] = tested on: human cervical cancer cell line HeLa; experiment: HeLa cell proliferation test using Trametinib and MK-2206; conditions: day 4 of the static culture
Experimental: as §1

[3] = tested on: human lung cancer cell line A549; experiment: Effect of Gefitinib on proliferation of A549 cell stimulated with human HB-EGF; conditions: DAG 0.015%, day 6
Experimental: This aqueous solution was sterilized at 121°C for 20 min in an autoclave. […] Each plate was cultured by being stood still in a CO2 incubator (37°C, 5% CO2). […] To the culture medium on day 6 was added an ATP reagent (150 µL) (CellTiter-Glo (registered trade mark) Luminescent Cell Viability Assay, manufactured by Promega) to give a suspension, which was stood for about 10 min at room temperature, and the luminescence intensity (RLU value) was measured by FlexStation3 (manufactured by Molecular Devices), and the number of viable cells was measured by subtracting the luminescence value of the medium alone.

[4] = tested on: human cervical cancer cell line HeLa; experiment: Cell proliferation test using various anticancer drugs; conditions: DAG 0.030% medium; for cell density: 5 days later
Experimental: This aqueous solution was sterilized at 121°C for 20 min in an autoclave. […] The anticancer drug used was Adriamycin (manufactured by WAKO), Paclitaxel (manufactured by WAKO) or Mitomycin C (manufactured by WAKO).
Successively, this plate was cultured by being stood still in a CO2 incubator (37°C, 5% CO2) for 7 days. After culturing for 3, 5, 7 days, to the culture medium was added a WST-8 solution (manufactured by DOJINDO Laboratories, 20 µL), and the mixture was incubated at 37°C for 100 min. The absorbance at 450 nm was measured by an absorbance spectrometer (manufactured by Molecular Devices, SPECTRA MAX 190), and the number of viable cells was measured by subtracting the absorbance of the medium alone. The culture medium containing the cells after 5 days of culture was stirred with a pipette and the obtained stirred solution (20 µL) was mixed with Trypan Blue stain 0.4% (manufactured by Invitrogen, 20 µL) and the cell density was measured under a microscope.

[5] = tested on: human cervical cancer cell line HeLa; experiment: Comparison with single layer culture method in cell proliferation test using anticancer drug; conditions: day 4
Experimental: This aqueous solution was sterilized at 121°C for 20 min in an autoclave. […] Each plate was cultured by being stood still in a CO2 incubator (37°C, 5% CO2). […] The anticancer drug used was Adriamycin (manufactured by WAKO), Paclitaxel (manufactured by WAKO) or Mitomycin C (manufactured by WAKO). To the culture medium on day 4 was added an ATP reagent (150 µL) (CellTiter-Glo (registered trade mark) Luminescent Cell Viability Assay, manufactured by Promega) to give a suspension, which was stood for about 10 min at room temperature, and the luminescence intensity (RLU value) was measured by FlexStation3 (manufactured by Molecular Devices), and the number of viable cells was measured by subtracting the luminescence value of the medium alone. For WST-8 measurement, a WST-8 solution (manufactured by DOJINDO Laboratories, 15 µL) was added, the mixture was incubated at 37°C for 100 min, the absorbance at 450 nm was measured by an absorbance spectrometer (manufactured by Molecular Devices, SPECTRA MAX 190), and the number of viable cells was measured by subtracting the absorbance of the medium alone.

[6] = drug 0.03 µM, deacylated gellan gum addition group (0.015%)
[7] = drug 0.03 µM, single layer culture group
[8] = drug 0.3 µM, deacylated gellan gum addition group (0.015%)
[9] = drug 0.3 µM, single layer culture group
[10] = drug 3 µM, deacylated gellan gum addition group (0.015%)
[11] = drug 3 µM, single layer culture group
[12] = drug 30 µM, deacylated gellan gum addition group (0.015%)
[13] = drug 30 µM, single layer culture group
[14] = drug 0.001 µM, deacylated gellan gum addition group (0.015%)
[15] = drug 0.001 µM, single layer culture group
[16] = drug 0.01 µM, deacylated gellan gum addition group (0.015%)
[17] = drug 0.01 µM, single layer culture group
[18] = drug 0.1 µM, deacylated gellan gum addition group (0.015%)
[19] = drug 0.1 µM, single layer culture group
[20] = drug 1 µM, deacylated gellan gum addition group (0.015%)
[21] = drug 1 µM, single layer culture group
[22] = drug 0.003 µM, deacylated gellan gum addition group (0.015%)
[23] = drug 0.003 µM, single layer culture group

For `NC1(c2ccc(-c3nc4ccn5c(=O)[nH]nc5c4cc3-c3ccccc3)cc2)CCC1` [MK-2206], the “% Control value of the RLU value (ATP measurement)” value (“% Control value of the RLU value” below) [1, 6] was 84 % Control, the “% Control value of the RLU value” value [1, 7] was 93 % Control and the “% Control value of the RLU value” value [1, 8] was 45 % Control. The “% Control value of the RLU value” value [1, 9] was 79 % Control, the “% Control value of the RLU value” value [1, 10] was 21 % Control and the “% Control value of the RLU value” value [1, 11] was 53 % Control. For the same molecule, the “% Control value of the RLU value” value [1, 12] was 0 % Control, the “% Control value of the RLU value” value [1, 13] was 0 % Control and the “% Control value of the RLU value” value [2, 6] was 57 % Control. The “% Control value of the RLU value” value [2, 7] was 93 % Control, the “% Control value of the RLU value” value [2, 8] was 21 % Control and the “% Control value of the RLU value” value [2, 9] was 84 % Control. For the same molecule, the “% Control value of the RLU value” value [2, 10] was 21 % Control, the “% Control value of the RLU value” value [2, 11] was 69 % Control and the “% Control value of the RLU value” value [2, 12] was 0 % Control. The “% Control value of the RLU value” value [2, 13] was 0 % Control.
For `CC(=O)Nc1cccc(-n2c(=O)n(C3CC3)c(=O)c3c(Nc4ccc(I)cc4F)n(C)c(=O)c(C)c32)c1` [Trametinib], the “% Control value of the RLU value” value [1, 14] was 72 % Control, the “% Control value of the RLU value” value [1, 15] was 71 % Control and the “% Control value of the RLU value” value [1, 16] was 35 % Control. For the same molecule, the “% Control value of the RLU value” value [1, 17] was 37 % Control, the “% Control value of the RLU value” value [1, 18] was 2 % Control and the “% Control value of the RLU value” value [1, 19] was 5 % Control. The “% Control value of the RLU value” value [1, 20] was 0 % Control, the “% Control value of the RLU value” value [1, 21] was 1 % Control and the “% Control value of the RLU value” value [2, 14] was 73 % Control. For the same molecule, the “% Control value of the RLU value” value [2, 15] was 102 % Control, the “% Control value of the RLU value” value [2, 16] was 12 % Control and the “% Control value of the RLU value” value [2, 17] was 93 % Control. The “% Control value of the RLU value” value [2, 18] was 1 % Control, the “% Control value of the RLU value” value [2, 19] was 20 % Control and the “% Control value of the RLU value” value [2, 20] was 1 % Control. For the same molecule, the “% Control value of the RLU value” value [2, 21] was 3 % Control.
In the case of `COc1cc2ncnc(Nc3ccc(F)c(Cl)c3)c2cc1OCCCN1CCOCC1` [Gefitinib], the “% Control value of the RLU value” value ([3]; 0.1 µM, HB-EGF 100 ng/ml) is reported as 91 % Control, the “% Control value of the RLU value” value ([3]; 0.1 µM, HB-EGF no addition) is reported as 89 % Control and the “% Control value of the RLU value” value ([3]; 0.3 µM, HB-EGF 100 ng/ml) is reported as 74 % Control. For the same molecule, the “% Control value of the RLU value” value ([3]; 0.3 µM, HB-EGF no addition) was 84 % Control, the “% Control value of the RLU value” value ([3]; 1 µM, HB-EGF 100 ng/ml) was 59 % Control and the “% Control value of the RLU value” value ([3]; 1 µM, HB-EGF no addition) was 77 % Control. For the same molecule, the “% Control value of the RLU value” value ([3]; 3 µM, HB-EGF 100 ng/ml) was 53 % Control and the “% Control value of the RLU value” value ([3]; 3 µM, HB-EGF no addition) was 69 % Control.
With `CC(=O)O[C@H]1C(=O)[C@@]2(C)[C@H]([C@H](OC(=O)c3ccccc3)[C@]3(O)C[C@H](OC(=O)[C@H](O)[C@@H](NC(=O)c4ccccc4)c4ccccc4)C(C)=C1C3(C)C)[C@]1(OC(C)=O)CO[C@@H]1C[C@@H]2O` [Paclitaxel] the “% Control value of the RLU value” value [1, 14] was 93 % Control, the “% Control value of the RLU value” value [1, 15] was 81 % Control and the “% Control value of the RLU value” value [1, 22] was 52 % Control. For the same molecule, the “% Control value of the RLU value” value [1, 23] was 31 % Control, the “% Control value of the RLU value” value [1, 16] was 32 % Control and the “% Control value of the RLU value” value [1, 17] was 16 % Control. For the same molecule, the “% Control value of the RLU value” value [2, 14] was 104 % Control, the “% Control value of the RLU value” value [2, 15] was 89 % Control and the “% Control value of the RLU value” value [2, 22] was 46 % Control. For the same molecule, the “% Control value of the RLU value” value [2, 23] was 15 % Control, the “% Control value of the RLU value” value [2, 16] was 5 % Control and the “% Control value of the RLU value” value [2, 17] was 2 % Control. For the same molecule, the cell density ([4]; drug 0.001 µM) was 5.3 10^4 cells/mL, the “cell number (absorbance at 450 nm, WST-8)” value (“cell number” for short) ([4]; drug 0.001 µM, day 3) was 0.276 and the “cell number” value ([4]; drug 0.001 µM, day 5) was 0.223. The “cell number” value ([4]; drug 0.001 µM, day 7) was 0.222, the cell density ([4]; drug 0.01 µM) was 1.6 10^4 cells/mL and the “cell number” value ([4]; drug 0.01 µM, day 3) was 0.019. The “cell number” value ([4]; drug 0.01 µM, day 5) was under 0, the “cell number” value ([4]; drug 0.01 µM, day 7) was under 0 and the cell density ([4]; drug 0.1 µM) was 0.9 10^4 cells/mL. The “cell number” value ([4]; drug 0.1 µM, day 3) was under 0, the “cell number” value ([4]; drug 0.1 µM, day 5) was under 0 and the “cell number” value ([4]; drug 0.1 µM, day 7) was under 0. For the same molecule, the cell density ([4]; drug 1 µM) was 0.2 10^4 cells/mL, the “cell number” value ([4]; drug 1 µM, day 3) was under 0 and the “cell number” value ([4]; drug 1 µM, day 5) was under 0. For the same molecule, the “cell number” value ([4]; drug 1 µM, day 7) was under 0, the “% Control value of the RLU value” value [5, 14] was 107 % Control and the “% Control value of the absorbance at 450 nm (WST-8 measurement)” value (“% Control value of the absorbance” for short) [5, 14] was 125 % Control. The “% Control value of the RLU value” value [5, 15] was 95 % Control, the “% Control value of the absorbance” value [5, 15] was 99 % Control and the “% Control value of the RLU value” value [5, 22] was 34 % Control. The “% Control value of the absorbance” value [5, 22] was 33 % Control, the “% Control value of the RLU value” value [5, 23] was 36 % Control and the “% Control value of the absorbance” value [5, 23] was 32 % Control. For the same molecule, the “% Control value of the RLU value” value [5, 16] was 18 % Control, the “% Control value of the absorbance” value [5, 16] was 5 % Control and the “% Control value of the RLU value” value [5, 17] was 10 % Control. The “% Control value of the absorbance” value [5, 17] was 10 % Control, the “% Control value of the RLU value” value [5, 6] was 17 % Control and the “% Control value of the absorbance” value [5, 6] was 3 % Control. The “% Control value of the RLU value” value [5, 7] was 4 % Control and the “% Control value of the absorbance” value [5, 7] was 5 % Control.
